US20220118002A1, “COMPOSITIONS OF MATTER WITH ACTIVITY TO REMOVE LIPOFUSCIN FROM RETINAL CELLS” (Cornell University, priority 2019, published 2022)

Experiments:
[1] = tested on: Human retinal pigment epithelium (RPE) cultured cells, ARPE-19, pre-loaded with A2E; experiment: A2E (lipofuscin bisretinoid) removal assay, fluorescence plate reader; format: cell-based; conditions: for removal of lipofuscin bisretinoids (A2E) from retinal cells: 4 mM cyclodextrin, 48 hrs, cells pre-loaded with 5 μM A2E, FIG. 2
A2E-loaded RPE cultures = experiment: Fluorescence microscopy of LB removal from A2E-loaded cells; format: cell-based, human
Procedure: […] At the end of the incubation period, fluorescence of A2E inside the cells was monitored by fluorescence microscopy at 100× magnification. Cells were stained with Hoechst stain to visualize nuclei of cells that contained A2E.
FIGS. 4A-4B show the removal of LB with methyl β-Cyclodextrin as determined by fluorescence microscopy. […] Cells were stained with Hoechst stain to visualize nuclei. Fluorescence of A2E inside the cells (unextracted cells) was monitored by fluorescence microscopy at 100× magnification.
Untreated A2E-loaded RPE cultures served as negative controls. A2E-loaded RPE cultures were treated with 7.5 mM of the indicated β-Cyclodextrin compound for 48 hrs. For each cyclodextrin, three separate lots were tested. Lipofuscin (yellow) is visualized by fluorescence microscopy (488 nm/600 nm) using low magnification (10×) objective to capture a large number of cells.
Fluorescence microscopy: LBs are auto-fluorescent molecules on account of the abundant conjugated double bonds in their hydrophobic arms. When excited at 430 nm (blue light) they emit yellow-orange fluorescence peaking at 610 nm. The intensity of the fluorescence is proportional to their amounts. Hoechst blue fluorescence dye was used to stain the nucleus of cells treated with cyclodextrins. […] Each dose was assayed in triplicated and ten random fields were evaluated per well. […]

[2] = tested on: lipofuscin (LB) in RPE of DKO mice (ABCA4 and RDH8 mutations); experiment: In vivo LB removal from eyes by intravitreal injection, RPE-eyecup autofluorescence; design: species or system mouse; conditions: FIG. 9; for reduction of the amount of lipofuscin vs vehicle (significance, unpaired T-test): two intravitreal injections one week apart, same doses; for total LB extracted from retinas: two intravitreal injections one week apart: 2 μl 100 mM MβCD, 1 μl 500 mM HPβCD or SBE-βCD, eyes harvested 4 days after second injection
[3] = tested on: Epithelial cells pre-loaded with A2E; experiment: Stoichiometric distribution of A2E between cell lysates and supernatants; format: cell-based; conditions: 12.5 mM, 4 hrs, serum free media, FIG. 7
[4] = tested on: lipofuscin and A2E accumulation in ABCA4-/- mouse; conditions: cited from earlier work
formation of new LB = conditions: oral, animals; cited from earlier work
[5] = tested on: patients diagnosed with Stargardt or AMD; conditions: cited from earlier work
[6] = tested on: lipofuscin in RPE cells of monkey retinas; conditions: oral, one year; cited from earlier work
visual acuity of mice = experiment: Visual acuity, Spatial Frequency (SF) response by OptoMotry; conditions: intravitreal, twice, one week apart, both eyes: 2 μl 100 mM M-βCD, 1 μl 500 mM HP-βCD or SBE-βCD, FIGS. 10A-10B
[7] = tested on: photoreceptor layer (ONL) / retina; experiment: Retina morphometry and histology (ONL thickness, H&E cross sections); format: in vivo, mouse; conditions: intravitreal treatment
Procedure: Morphometric analysis comparing the thickneness of the outer nuclear layer (ONL) in control and SBE-BCD treated animals was performed. The layer of photoreceoptors was selected using Photoshop and ImageJ and thickness was measured.
Stitched images were created using ZEN Blue (Zeiss) from individual fields obtained by color microscopy of hematoxylin and eosin stained paraffin-embedded cross sections of retinas from mice treated with 1 μl vehicle or Sulfo Butyl β-Cyclodextrin.
2 μl 100 mM M-βCD; 1 μl 500 mM HP-3CD; or 1 μl 500 mM SBE-βCD were injected twice, one-week apart, in both eyes and 2 μl H2O were injected intravitreally to age matched controls. To evaluate the visual toxicity of the treatment, the Spatial Frequency response (SF) was determined just before each injection and before sacrificing the mouse, i.e., four days after the second injection. SF is a cone-mediated visual response measured using an OptoMotry (OMT) chamber. Briefly, the mouse standing unrestrained on an elevated platform is surrounded by computer monitors that create a virtual cylinder with black bars on white background.

[8] = long-term oral administration, ABCA4-/-

Methyl β-Cyclodextrin
removal of lipofuscin bisretinoids (A2E) from retinal cells [1]: promoted removal of lipofuscin bisretinoids from retinal cells | dose that removed most of the detectable LB deposits ([1]; 24 hrs, FIG. 3A): 10 to 20 µM | dose dependence of A2E removal ([1]; 24 hrs, increasing doses, FIG. 3A): dose-dependent | A2E removal compared to untreated control at lowest tested dose ([1]; 24 hrs, lowest tested dose, FIG. 3A): about 75% | localisation of LB after treatment (A2E-loaded RPE cultures; 7.5 mM, 100× objective, FIGS. 4A-4B): LB was expelled outside the cells | LB fluorescence in cells after treatment (A2E-loaded RPE cultures; 24 hours, 100× magnification, FIG. 3B): completely devoid of the turquoise fluorescence | reduction of the amount of lipofuscin vs vehicle (significance, unpaired T-test) [2]: did not significantly reduce the amount of lipofuscin | total LB extracted from retinas [2]: 18.2% | distribution of A2E fluorescence between cells and supernatants [3]: all A2E fluorescence that was absent from cells was present in supernatants

[2H]C([2H])([2H])C(/C=C/C=C(C)/C=C/C1=C(C)CCCC1(C)C)=C\COC(C)=O [ALK-001, deuterated vitamin A]
visual function by electroretinogram ([4]; ABCA4-/- mouse model): prevented the gradual loss of visual function | reduction of accumulation of A2E [4, 8]: 80% | reduction of accumulation of lipofuscin [4, 8]: 70%

CC1=C(/C=C/C(C)=C/C=C/C(C)=C/C(=O)Nc2ccc(O)cc2)C(C)(C)CCC1 [fenretinide]
formation of new LB (formation of new LB): effective at slowing down the formation of new LB | side effects ([5]; oral): night blindness, and mild reversible skin-dryness | therapeutic effect in patients ([5]; patients already diagnosed with Stargardt or AMD): did not confer a significant therapeutic effect

COC[C@H]1O[C@@H]2O[C@H]3[C@H](O)[C@@H](OC)[C@@H](O[C@H]4[C@H](O)[C@@H](OC)[C@@H](O[C@H]5[C@H](O)[C@@H](OC)[C@@H](O[C@H]6[C@H](O)[C@@H](OC)[C@@H](O[C@H]7[C@H](O)[C@@H](OC)[C@@H](O[C@H]8[C@H](O)[C@@H](OC)[C@@H](O[C@H]1[C@H](O)[C@H]2OC)O[C@@H]8COC)O[C@@H]7COC)O[C@@H]6COC)O[C@@H]5COC)O[C@@H]4COC)O[C@@H]3COC [2,6-di-O-methyl-β-Cyclodextrin, Heptakis (2,6-di-O-Methyl) β-Cyclodextrin, reference compound]
removal of lipofuscin bisretinoids (A2E) from retinal cells [1]: not effective in promoting LB removal

COCCO[C@@H]1c2ccn3c(C)c(C)nc3c2N[C@H](c2ccccc2)[C@H]1O [soprazan]
elimination of lipofuscin from RPE cells [6]: Successful elimination of lipofuscin from RPE cells

COC[C@H]1O[C@@H]2O[C@H]3[C@H](OC)[C@@H](OC)[C@@H](O[C@H]4[C@H](OC)[C@@H](OC)[C@@H](O[C@H]5[C@H](OC)[C@@H](OC)[C@@H](O[C@H]6[C@H](OC)[C@@H](OC)[C@@H](O[C@H]7[C@H](OC)[C@@H](OC)[C@@H](O[C@H]8[C@H](OC)[C@@H](OC)[C@@H](O[C@H]1[C@H](OC)[C@H]2OC)O[C@@H]8COC)O[C@@H]7COC)O[C@@H]6COC)O[C@@H]5COC)O[C@@H]4COC)O[C@@H]3COC [2,3,6-tri-O-methyl-β-Cyclodextrin, Heptakis (2,3,6-tri-O-Methyl) β-Cyclodextrin, reference compound]
removal of lipofuscin bisretinoids (A2E) from retinal cells [1]: not effective in promoting LB removal

OC[C@H]1O[C@@H]2O[C@H]3[C@H](O)[C@@H](O)[C@@H](O[C@H]4[C@H](O)[C@@H](O)[C@@H](O[C@H]5[C@H](O)[C@@H](O)[C@@H](O[C@H]6[C@H](O)[C@@H](O)[C@@H](O[C@H]7[C@H](O)[C@@H](O)[C@@H](O[C@H]8[C@H](O)[C@@H](O)[C@@H](O[C@H]1[C@H](O)[C@H]2O)O[C@@H]8CO)O[C@@H]7CO)O[C@@H]6CO)O[C@@H]5CO)O[C@@H]4CO)O[C@@H]3CO [β-Cyclodextrin, reference compound]
removal of lipofuscin bisretinoids (A2E) from retinal cells [1]: did not extract A2E

Sulfobutyl ether β-Cyclodextrin [Sulfo Butyl Ether β-Cyclodextrin]
removal of lipofuscin bisretinoids (A2E) from retinal cells [1]: promoted removal of lipofuscin bisretinoids from retinal cells | reduction of the amount of lipofuscin vs vehicle (significance, unpaired T-test) [2]: effective | total LB extracted from retinas [2]: 42.6% | visual acuity (Spatial Frequency response) (visual acuity of mice): well tolerated showing indistinguishable SF from water treated and non-injected negative controls | distribution of A2E fluorescence between cells and supernatants [3]: all A2E fluorescence that was absent from cells was present in supernatants | overall structure of the retinas ([7]; H&E cross sections, FIG. 11B): remained intact | integrity of the photoreceptor layer (ONL) ([7]; ONL thickness, FIG. 11A): did not compromise the integrity of the photoreceptor layer (ONL)

OC[C@H]1O[C@@H]2O[C@H]3[C@H](O)[C@@H](O)[C@@H](O[C@H]4[C@H](O)[C@@H](O)[C@@H](O[C@H]5[C@H](O)[C@@H](O)[C@@H](O[C@H]6[C@H](O)[C@@H](O)[C@@H](O[C@H]7[C@H](O)[C@@H](O)[C@@H](O[C@H]1[C@H](O)[C@H]2O)O[C@@H]7CO)O[C@@H]6CO)O[C@@H]5CO)O[C@@H]4CO)O[C@@H]3CO [α-Cyclodextrin, reference compound]
removal of lipofuscin bisretinoids (A2E) from retinal cells [1]: did not extract A2E

CC(O)COC[C@H]1O[C@@H]2O[C@H]3[C@H](O)[C@@H](O)[C@@H](O[C@H]4[C@H](O)[C@@H](O)[C@@H](O[C@H]5[C@H](O)[C@@H](O)[C@@H](O[C@H]6[C@H](O)[C@@H](O)[C@@H](O[C@H]7[C@H](O)[C@@H](O)[C@@H](O[C@H]8[C@H](O)[C@@H](O)[C@@H](O[C@H]1[C@H](O)[C@H]2O)O[C@@H]8COCC(C)O)O[C@@H]7COCC(C)O)O[C@@H]6COCC(C)O)O[C@@H]5COCC(C)O)O[C@@H]4COCC(C)O)O[C@@H]3COCC(C)O (stereo partly drawn) [2-Hydroxy Propyl β-Cyclodextrin, 2-hydroxypropyl beta-Cyclodextrin]
removal of lipofuscin bisretinoids (A2E) from retinal cells [1]: promoted removal of lipofuscin bisretinoids from retinal cells | reduction of the amount of lipofuscin vs vehicle (significance, unpaired T-test) [2]: effective | visual acuity (Spatial Frequency response) (visual acuity of mice): some animals showing significant impairment of visal response | distribution of A2E fluorescence between cells and supernatants [3]: all A2E fluorescence that was absent from cells was present in supernatants

OC[C@H]1O[C@@H]2O[C@H]3[C@H](O)[C@@H](O)[C@@H](O[C@H]4[C@H](O)[C@@H](O)[C@@H](O[C@H]5[C@H](O)[C@@H](O)[C@@H](O[C@H]6[C@H](O)[C@@H](O)[C@@H](O[C@H]7[C@H](O)[C@@H](O)[C@@H](O[C@H]8[C@H](O)[C@@H](O)[C@@H](O[C@H]9[C@H](O)[C@@H](O)[C@@H](O[C@H]1[C@H](O)[C@H]2O)O[C@@H]9CO)O[C@@H]8CO)O[C@@H]7CO)O[C@@H]6CO)O[C@@H]5CO)O[C@@H]4CO)O[C@@H]3CO [gamma-cyclodextrin, Gamma-Cyclodextrin, reference compound]
removal of lipofuscin bisretinoids (A2E) from retinal cells [1]: did not extract A2E
